Data: patent publication US10765654B2, “Methods and compounds for treating cancer” (University of Vermont and State Agricultural College, priority 2011, dated 2020)
Peptide text beside a SMILES is read from it.

Assays:
Format in all cases: cell-based, human
[1] = tested on: OG33 oligodendroglioma stem cells; assay: Cell cycle profile by propidium iodide staining and flow cytometry; settings: 100 μM NAA or 10 μM NAAG
Protocol: (§1) Cell cycle profiles were visualized by propidium iodide (PI) staining as previously described (Perez-Martinez & Jaworski (2005) J Neurosci 25:4917-29). OG35, OG33 and mouse neural stem cells were grown in stem cell medium (SCM; DMEM/F12, B27, 20 ng/ml ea bFGF & EGF) while the oligodendrocyte progenitor cell line, Oli-neu (Jung et al. (1995) Eur J Neurosci 7:1245-65) was grown in Sato's medium (DMEM supplemented with 100 μg/ml apotransferrin, 5 μg/ml insulin, 60 nM triiodothyronine, 30 nM sodium selenite, 100 μM putrescine, 1% horse serum, and 25 μg/ml G418). […] after 0.25% (v/v) GTA treatment, cells were trypsinized, recovered by centrifugation, re-suspended (10^6 cells/ml) in a low-salt PI solution ([…] polyethylene glycol PEG 8000, […], 180 U/ml RNase A, 0.1% Triton X-100, and 4 mM sodium citrate), and incubated at 37° C. for 20 minutes. After addition of an equal volume of high-salt PI solution ([…] polyethylene glycol PEG 8000, […], 180 U/ml RNase A, 0.1% Triton X-100, and 400 mM NaCl) and incubation at 4° C. for 1 hour, cell cycle profiles were recorded by flow cytometry (BD LSR 11 Flow Cytometer, BD Biosciences; Franklin Lakes, N.J.).

[2] = tested on: OG33 oligodendroglioma stem cells; assay: Growth dynamics, trypan blue exclusion and manual counting; settings: 100 μM NAA or 10 μM NAAG; SCM and DM; later time points up to 5 days
Protocol: (§2) Stem cell spheres from two oligodendroglioma stem cell lines (OG33 and OG35) were plated (at 10,000 cells per well of a 24-well plate) in the absence or presence of 100 μM N-acetylaspartate (NAA) or 10 μM N-acetylaspartylglutamate (NAAG) in stem cell medium (SCM) containing DMEM/F12 (Gibco/Life Technologies, Grand Island, N.Y.), B27 supplement (Gibco/Life Technologies, Grand Island, N.Y.), and 20 ng/ml each basic fibroblast growth factor (bFGF) and epidermal growth factor (EGF), or differentiation medium (DM) containing DMEM, 10% FBS. Medium, with fresh drug, was replenished every 48 hours. Growth dynamics were assessed using trypan blue exclusion and manual counting 1, 3, and 5 days after plating.

[3] = tested on: OG35 oligodendroglioma stem cells; assay: as above; settings: 100 μM NAA or 10 μM NAAG; stem cell medium (SCM) and differentiation medium (DM); later time points up to 5 days
Protocol: as §2

ASPA in OG33 cells [4] = assay: Immunocytochemistry of ASPA localization after NAA or NAAG; settings: 100 μM NAA or 10 μM NAAG; 5 days in DM; OG33 (cytosolic)
Protocol: (§3) Immunocytochemistry was performed as described (Perez-Martinez & Jaworski (2005) J Neurosci 25:4917-29). Briefly, OG33 and OG35 cells were plated into differentiaion medium (DMEM, 10% FBS), fixed with 2% paraformaldehyde, and ASPA expression localized immunocytochemically using rabbit anti-mouse ASPA (1,500×) (Madhavarao et al., 2004 Comp Neurol 472:318-29) and Cy-3 conjugated secondary antibody (500×; Jackson ImmunoResearch, West Grove, Pa.).

ASPA in OG35 cells = assay: as above; settings: 100 μM NAA or 10 μM NAAG; 5 days in DM; OG35 (primarily nuclear)
Protocol: as §3

ASPA in OG33 cells [5] = assay: Western blot of ASPA expression; settings: NAA and NAAG treatment (not shown)
Protocol: SDS-PAGE (25 μg protein from whole cell lysates) and western blotting were performed as previously described (Lluri et al. 2008 Exp Cell Res 314:11-24). Cytosol and nuclear fractions were isolated according to standard protocols. Antibodies: rabbit anti-mouse ASPA (2,000×), (Madhavarao et al. 2004 Comp Neurol 472:318-29) rabbit anti-human ASPA (5,000×; GTX1338; GeneTex, Irvine, Calif.), goat anti-human actin (1,000×, sc-1616, Santa Cruz Biotechnology, Santa Cruz, Calif.), rabbit anti-human GAPDH (5,000×, sc-25778, Santa Cruz Biotechnology, Santa Cruz, Calif.), mouse anti-human histone H1 (250×, sc-8030; Santa Cruz Biotechnology, Santa Cruz, Calif.). Species-specific HRP—(3,000×) conjugated secondary antibodies were obtained from Jackson ImmunoResearch (West Grove, Pa.). Immunocomplexes were visualized by enhanced chemiluminescence (PerkinElmer Life Sciences; Boston, Mass.) and densitometry performed using Quantity One software (Bio-Rad; Hercules, Calif.).
SDS-PAGE (25 μg protein from whole cell lysates) and western blotting were performed as previously described in Example 1.

[6] = tested on: OG35 oligodendroglioma stem cells; assay: Cell cycle profile by propidium iodide staining and flow cytometry; settings: 100 μM NAA or 10 μM NAAG
Protocol: as §1

## CC(=O)N[C@@H](CC(=O)O)C(=O)O [NAA, N-acetylaspartate]
[1]
  OG33 cell number by flow cytometric cell cycle analysis: no significant change
[2]
  OG33 cell growth (cell number, manual counting): only increased in SCM
[3]
  OG35 cell growth (cell number, manual counting): increased in SCM and DM
ASPA in OG33 cells [4]
  ASPA spatial localization: little effect
ASPA in OG35 cells
  ASPA spatial localization: little effect
ASPA in OG33 cells [5]
  Expression of novel 26 kDa ASPA species: induced

## CC(=O)N[C@@H](CC(=O)O)C(=O)N[C@@H](CCC(=O)O)C(=O)O [NAAG, N-acetylaspartylglutamate] (Ac-Asp-Glu-OH)
[1]
  OG33 cell number by flow cytometric cell cycle analysis: no significant change
[6]
  OG35 growth by flow cytometric cell cycle analysis (cells in G2/M and G0/G1): promoted OG35 growth
[2]
  OG33 cell growth (cell number, manual counting): only increased in SCM
[3]
  OG35 cell growth (cell number, manual counting): increased in SCM and DM
ASPA in OG33 cells [4]
  ASPA spatial localization: little effect
ASPA in OG35 cells
  ASPA spatial localization: little effect
ASPA in OG33 cells [5]
  Expression of novel 26 kDa ASPA species: induced
